Laboratory results as given in patent US5780253A, “Screening method for detection of herbicides” (Sandoz Ltd., priority 1996, dated 1998).
Entries after “also recorded” stand apart in the source; their conditions may differ. Read-outs that look alike come from different tables or passages of the source.

What was measured:
Arabidopsis [1] = experiment: Arabidopsis reversal (reversion) assay: growth with probe compound in the presence of antidote compounds; type: in vivo; conditions: for Inhibition of AMP biosynthesis (conversion of IMP to AMP), in words: concluded from Arabidopsis antidote reversal; for Growth (in words): without antidote; for Effect of the antidote alone on growth of the plant (in words): control columns 1 through 3, no probe compound
From the text: Test conditions suitable for growth are those conditions wherein the control plant material used in the screen, described herein, will grow normally. These conditions are easily determined by one skilled in the art. Reversal conditions are those conditions in which inhibition which occurs at the lethal concentration of a probe compound is reversed as determined by exposure of the plant material to combinations of the probe compound and to one or more antidote compounds. […] An antidote compound is a compound that causes reversal of inhibition of a probe compound. As an example, with respect to inhibitors of ADSS, antidotes would include AMP, ADP, adenosine and adenine.
The solutions are filter sterilized prior to addition. FIG. 4 represents a typical set up in a reversion assay for discovering inhibitors of AMP biosynthesis.
The left side (columns 1-3) of the 24-well microtiter plate is designed for controls, and the right side (columns 4-6) are designated for one probe compound. […] Rows B, C and D are supplemented with three doses of an antidote for the control and probe compound. […] The three doses are 50, 100 and 150 μl respectively of the stock solutions.
Forty ml of Arabidopsis growth media as described in Example 1 is sterilized and allowed to cool to about 45° C. A probe compound (at 1.5×lethal concentration) is added to columns 4 through 6 (right half of the plate). Media is distributed at 1.0 ml per well to all wells. Sterile seeds are added to each well as described above. As in Example 1, the plate is incubated and growth is scored.

Arabidopsis [2] = experiment: Arabidopsis bioassay, determination of the lethal concentration (LC 90) of the probe compound
IMP to GMP conversion = conditions: known; cited from earlier work
[3] = antidote Adenosine + Guanosine 0.5-5.0 mM
[4] = antidote Cytidine + Uridine 0.5-5.0 mM
[5] = antidote Hypoxanthine 0.5-5.0 mM
[6] = read-out: lethal concentration (LC 90), Arabidopsis seeds, 28° C., 7 days, approximately, 90% or greater growth inhibition

Row | Compound | Growth, % of Control (Arabidopsis [1]; antidote ADP 0.5-5.0 mM) | Growth, % of Control (Arabidopsis [1]; antidote AMP 0.5-5.0 mM) | Growth, % of Control (Arabidopsis [1]; antidote ATP 0.5-5.0 mM) | Growth, % of Control (Arabidopsis [1]; antidote Adenine 0.5-5.0 mM) | Growth, % of Control (Arabidopsis [1]; antidote Adenosine 0.5-5.0 mM) | Growth, % of Control (Arabidopsis [1]; [3]) | Growth, % of Control (Arabidopsis [1]; [4]) | Growth, % of Control (Arabidopsis [1]; antidote Guanine 0.5-5.0 mM) | Growth, % of Control (Arabidopsis [1]; antidote Guanosine 0.5-5.0 mM) | Growth, % of Control (Arabidopsis [1]; [5]) | Growth, % of Control (Arabidopsis [1]; antidote IMP 0.5-5.0 mM) | Inhibition of AMP biosynthesis (conversion of IMP to AMP), in words (Arabidopsis [1]) | Growth (in words) (Arabidopsis [1]) | also measured
1 | O=C1NC(=O)C2(N1)O[C@H](CO)[C@@H](O)[C@H]2O (single isomer, unassigned) [hydantocidin, reference compound] | 100 % of Control | 100 % of Control | 40 % of Control | 60 % of Control | 80-100 % of Control | 80 % of Control | 0 % of Control | 0 % of Control | 0 % of Control | 0 % of Control | 5 % of Control | blocking AMP biosynthesis; also recorded: inhibition of AMP biosynthesis | Growth is not observed | Growth / reversal of growth inhibition (in words) (Arabidopsis [1]; antidote IMP): did not reverse growth inhibition; Growth / reversal of growth inhibition (in words) (Arabidopsis [1]; antidotes adenosine and AMP, rows B and C, wells 4 through 6): Complete growth; IC90 (Arabidopsis [2]; [6]): ~2 µM
2 | Nc1ncnc2c1ncn2[C@@H]1O[C@H](COP(=O)(O)O)[C@@H](O)[C@H]1O [AMP, adenosine monophosphate, reference compound] | – | – | – | – | – | – | – | – | – | – | – | – | – | Effect of the antidote alone on growth of the plant (in words) (Arabidopsis [1]): no effect on the growth of the plant
3 | COc1c(C)c2c(c(O)c1C/C=C(\C)CCC(=O)O)C(=O)OC2 [MPA, Mycophenolic Acid] | – | – | – | – | – | – | – | – | – | – | – | – | Growth is not observed | IC90 (Arabidopsis [2]; Arabidopsis thaliana, 168 h, read-out: lethal concentration): 12.5 µg/mL; Inhibition of IMP to GMP conversion, in words (IMP to GMP conversion): known inhibitor of IMP to GMP conversion
4 | CC(=O)N1C(=O)NC2(OC(COP(=O)(O)O)C(O)C2O)C1=O (stereo not shown) [N-acetylphosphohydantocidin, 5'-Phospho-N-acetyl-hydantocidin] | 100 % of Control | 100 % of Control | 40 % of Control | 65 % of Control | 80-100 % of Control | 80 % of Control | 0 % of Control | 0 % of Control | 0 % of Control | 0 % of Control | 5 % of Control | – | Growth is not observed | Growth, % of Control (Arabidopsis [1]; No antidote, 0 mM, probe compound at 1.5×lethal concentration): 0 % of Control; IC90 (Arabidopsis [2]; [6]): ~8 µM
5 | NC(=O)c1ncn([C@@H]2O[C@H](CO)[C@@H](O)[C@H]2O)n1 [TCR, 1,2,4-triazole-3-carboxamide-1-ribose, reference compound] | – | – | – | – | – | – | – | – | – | – | – | – | Growth is not observed | –
6 | Nc1ncnc2c1ncn2[C@@H]1O[C@H](CO)[C@@H](O)[C@H]1O [adenosine, reference compound] | – | – | – | – | – | – | – | – | – | – | – | – | – | Effect of the antidote alone on growth of the plant (in words) (Arabidopsis [1]): no effect on the growth of the plant
7 | O=CN(O)CC(=O)O [hadacidin, reference compound] | – | – | – | – | – | – | – | – | – | – | – | blocking AMP biosynthesis | Growth is not observed | IC90 (Arabidopsis [2]; Arabidopsis thaliana, 168 h, read-out: lethal concentration (LC 90)): ~50 µM
8 | N-acetyl hydantocidin | 100 % of Control | 100 % of Control | 40 % of Control | 60 % of Control | 80-100 % of Control | 80 % of Control | 0 % of Control | 0 % of Control | 0 % of Control | 0 % of Control | 5 % of Control | blocking AMP biosynthesis | Growth is not observed | –
